One experiment has as its target T1, ARG1 (Homo sapiens, UniProt P05089).
T1 construct: recombinant human ARG1 (E. coli)
T1 sequence (P05089 1-322): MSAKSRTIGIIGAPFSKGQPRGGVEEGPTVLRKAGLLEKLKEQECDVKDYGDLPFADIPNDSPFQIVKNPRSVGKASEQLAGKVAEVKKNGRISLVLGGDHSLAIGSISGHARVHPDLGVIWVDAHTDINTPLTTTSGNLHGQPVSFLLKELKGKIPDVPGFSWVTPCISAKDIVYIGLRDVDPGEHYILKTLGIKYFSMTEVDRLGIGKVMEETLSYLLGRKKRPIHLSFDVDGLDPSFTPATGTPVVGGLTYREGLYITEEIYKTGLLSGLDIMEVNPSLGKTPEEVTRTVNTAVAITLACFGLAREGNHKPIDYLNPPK
The experiment is described as follows: colorimetric urea-production arginase assay with recombinant enzyme. Type of experiment: biochemical.

The target in a further experiment is T2, ARG2 (Homo sapiens, UniProt P78540).
T2 construct: recombinant human ARG2 (E. coli)
T2 sequence (P78540 23-354): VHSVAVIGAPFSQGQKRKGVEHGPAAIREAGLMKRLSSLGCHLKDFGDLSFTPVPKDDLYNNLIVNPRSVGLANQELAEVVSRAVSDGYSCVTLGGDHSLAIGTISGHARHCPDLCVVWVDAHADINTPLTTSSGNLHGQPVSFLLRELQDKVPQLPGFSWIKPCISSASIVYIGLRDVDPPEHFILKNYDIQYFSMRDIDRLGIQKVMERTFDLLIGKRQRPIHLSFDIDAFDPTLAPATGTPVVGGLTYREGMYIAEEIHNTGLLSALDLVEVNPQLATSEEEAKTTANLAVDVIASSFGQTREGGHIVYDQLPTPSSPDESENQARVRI
The experiment is described as above. It is filed as biochemical.

Broadly, the IC50 is the concentration at which inhibition is half-maximal.

On to `NNc1ccccc1` [PHZ, phenylhydrazine], for which the IC50 on ARG1 worked out at 1020 µM; at ARG2, 61 µM.

The values above are taken from PMC8664950, “Potent but transient immunosuppression of T-cells is a general feature of CD71^+ erythroid cells” (Communications Biology, 2021).
